From patent US10039780B2 (Chiesi Farmaceutici S.p.A., priority 2015, dated 2018)

How the values were obtained:
Assay type in all cases: physicochemical
[1] = Long term stability at 25° C. and 60% relative humidity (HPLC, ion chromatography, Karl-Fischer); conditions: for Impurity A concentration / Impurity B concentration / Total impurities concentration / Moisture concentration / Impurity E concentration / Impurity C concentration: 25° C./60% relative humidity; for Moisture concentration: Karl-Fischer; for Impurity E concentration: ion chromatography; for storage stability, conclusion in words: storage at 25° C./60% relative humidity
Description: Their pH was adjusted to 8.5 prior to lyophilization and they were stored in glass vials stoppered with a stopper specifically selected for its ability to retain as little moisture as possible after autoclaving and after drying for 8 h at 105° C. […] Cangrelor lots API A-B are cangrelor tetrasodium. They were stored in double polyethylene bags in […]. […] In addition their moisture content was determined by Karl-Fischer titration.

[2] = Solution stability of cangrelor in purified water, reverse phase HPLC; conditions: 1 mg/mL in purified water
[3] = Accelerated pH stability of cangrelor in buffer solutions, reverse phase HPLC; conditions: 1 mg/mL, 7 days at 40° C. protected from light
Description: The extent of degradation was determined using a reverse phase HPLC method.

[4] = Photostability of solid cangrelor in quartz cuvettes, reverse phase HPLC
Description: Namely, solid cangrelor was placed in two quartz cuvettes. Both cuvettes were placed in a chamber and exposed to a combination of […] (near UV) and […] (visible) light for a total of 7.8×10^6 LUX hours and 221 watt hours/m^2, but one cuvette was wrapped in aluminum foil. After 17 days, the levels of impurities in the sample were determined by reverse phase HPLC.

[5] = Hygroscopicity by dynamic vapor adsorption analysis
[6] = after 8 days, 4° C. and ambient humidity
[7] = after 8 days, 25° C. and 60% relative humidity
[8] = after 8 days, 40° C. and ambient humidity

CSCCNc1nc(SCCC(F)(F)F)nc2c1ncn2[C@@H]1O[C@H](COP(=O)([O-])OP(=O)([O-])C(Cl)(Cl)P(=O)([O-])[O-])[C@@H](O)[C@H]1O.[Na+].[Na+].[Na+].[Na+] [API A]
Impurity A concentration ([1]; 1 month): 0.28 % w/w | Impurity B concentration ([1]; 1 month): 0.22 % w/w | Total impurities concentration ([1]; 1 month): 1.10 % w/w | Moisture concentration ([1]; 1 month): 7.7 % w/w | Impurity E concentration ([1]; 1 month): 0.08 % w/w | Impurity A concentration ([1]; 3 months): 0.47 % w/w | Impurity B concentration ([1]; 3 months): 0.33 % w/w | Total impurities concentration ([1]; 3 months): 1.40 % w/w | Moisture concentration ([1]; 3 months): 11.3 % w/w | Impurity E concentration ([1]; 3 months): 0.11 % w/w | Impurity A concentration ([1]; Initial): 0.15 % w/w | Impurity B concentration ([1]; Initial): 0.11 % w/w | Total impurities concentration ([1]; Initial): 0.70 % w/w | Moisture concentration ([1]; Initial): 4.3 % w/w | Impurity E concentration ([1]; Initial): 0.06 % w/w | storage stability, conclusion in words [1]: display significant degradation over time

CSCCNc1nc(SCCC(F)(F)F)nc2c1ncn2[C@@H]1O[C@H](COP(=O)([O-])OP(=O)([O-])C(Cl)(Cl)P(=O)([O-])[O-])[C@@H](O)[C@H]1O.[Na+].[Na+].[Na+].[Na+] [API B]
Impurity A concentration ([1]; 1 month): 0.36 % w/w | Impurity B concentration ([1]; 1 month): 0.19 % w/w | Impurity C concentration ([1]; 1 month): 0.06 % w/w | Total impurities concentration ([1]; 1 month): 1.10 % w/w | Moisture concentration ([1]; 1 month): 6.9 % w/w | Impurity A concentration ([1]; 3 months): 0.51 % w/w | Impurity B concentration ([1]; 3 months): 0.32 % w/w | Impurity C concentration ([1]; 3 months): 0.08 % w/w | Total impurities concentration ([1]; 3 months): 1.50 % w/w | Moisture concentration ([1]; 3 months): 9.9 % w/w | Impurity A concentration ([1]; 6 months): 0.70 % w/w | Impurity B concentration ([1]; 6 months): 0.48 % w/w | Impurity C concentration ([1]; 6 months): 0.19 % w/w | Total impurities concentration ([1]; 6 months): 1.90 % w/w | Moisture concentration ([1]; 6 months): 11.6 % w/w | Impurity A concentration ([1]; Initial): 0.31 % w/w | Impurity B concentration ([1]; Initial): 0.11 % w/w | Impurity C concentration ([1]; Initial): <0.05 % w/w | Total impurities concentration ([1]; Initial): 0.80 % w/w | Moisture concentration ([1]; Initial): 7.0 % w/w | storage stability, conclusion in words [1]: display significant degradation over time

CSCCNc1nc(SCCC(F)(F)F)nc2c1ncn2[C@@H]1O[C@H](COP(=O)(O)OP(=O)(O)C(Cl)(Cl)P(=O)(O)O)[C@@H](O)[C@H]1O [Cangrelor, [dichloro-[[[(2R,3S,4R,5R)-3,4-dihydroxy-5-[6-(2-methylsulfanylethylamino)-2-(3,3,3-trifluoropropylsulfanyl)purin-9-yl]oxolan-2-yl]methoxy-hydroxyphosphoryl]oxy-hydroxyphosphoryl]methyl]phosphonic acid]
Cangrelor measured level ([2]; Initial): 98.23 % w/w | Impurity A measured level ([2]; Initial): 0.16 % w/w | Impurity C measured level ([2]; Initial): 0.28 % w/w | Total Impurities measured level ([2]; Initial): 1.76 % w/w | Cangrelor measured level [2, 6]: 98.45 % w/w | Impurity A measured level [2, 6]: 0.22 % w/w | Impurity C measured level [2, 6]: 0.26 % w/w | Total Impurities measured level [2, 6]: 1.54 % w/w | Cangrelor measured level [2, 7]: 96.94 % w/w | Impurity A measured level [2, 7]: 1.58 % w/w | Impurity C measured level [2, 7]: 0.27 % w/w | Total Impurities measured level [2, 7]: 3.06 % w/w | Cangrelor measured level [2, 8]: 90.46 % w/w | Impurity A measured level [2, 8]: 7.50 % w/w | Impurity C measured level [2, 8]: 0.37 % w/w | Total Impurities measured level [2, 8]: 9.56 % w/w | Impurity A ([3]; pH 1.0, 0.1M HCl): 28.51 % w/w | Impurity D ([3]; pH 1.0, 0.1M HCl): 68.12 % w/w | Total Impurities ([3]; pH 1.0, 0.1M HCl): 97.28 % w/w | Impurity A ([3]; pH 3.0, Phosphate): 28.69 % w/w | Impurity D ([3]; pH 3.0, Phosphate): 0.81 % w/w | Total Impurities ([3]; pH 3.0, Phosphate): 31.48 % w/w | Impurity A ([3]; pH 5.0, Phosphate): 20.70 % w/w | Total Impurities ([3]; pH 5.0, Phosphate): 22.16 % w/w | Impurity A ([3]; pH 7.0, Phosphate): 14.31 % w/w | Total Impurities ([3]; pH 7.0, Phosphate): 15.71 % w/w | Impurity A ([3]; pH 9.0, Phosphate): 3.25 % w/w | Total Impurities ([3]; pH 9.0, Phosphate): 4.90 % w/w | Impurity A ([3]; pH 11.0, Phosphate): 2.61 % w/w | Total Impurities ([3]; pH 11.0, Phosphate): 4.28 % w/w | Impurity A ([3]; pH 12.0, 0.1M NaOH): 2.42 % w/w | Total Impurities ([3]; pH 12.0, 0.1M NaOH): 4.39 % w/w | total level of impurities ([4]; solid cangrelor, initially): 0.8 % (w/w) | total level of impurities ([4]; solid, exposed sample, near UV and visible light, 7.8×10^6 LUX hours and 221 watt hours/m^2, after 17 days): 4.3 % (w/w) | total level of impurities ([4]; solid, shielded sample (cuvette wrapped in aluminum foil), after 17 days): 1.2 % (w/w)

CSCCNc1nc(SCCC(F)(F)F)nc2c1ncn2[C@@H]1O[C@H](COP(=O)(O)OP(=O)(O)C(Cl)(Cl)P(=O)(O)O)[C@@H](O)[C@H]1O [cangrelor tetrasodium]
hygroscopicity [5]: hygroscopic
